Test results: patent US9708265B2, “Urethanes, ureas, amidines and related inhibitors of factor Xa” (priority 2010, dated 2017)

Experiments:
factor Xa = factor Xa (Homo sapiens, UniProt P00742); experiment: Activity towards factor Xa in vitro (initial rate of decomposition of substrate S-2222); type: biochemical; settings: substrate S-2222 164 μM, room temperature, pH 7.5, 10 min preincubation; Ki calculated from IC50
Description: For some compounds depicted in the above examples, there has been measured a constant of activity of these substances towards the factor Xa in vitro—Ki. The measurements were carried out kinetically, in terms of the initial rate of decomposition of the substrate S-2222 by the protein. The measurements were carried out at room temperature in 2 ml rectangular quartz cuvettes. In the reaction there was used a solution: 50 mM Tris-HCl, 150 mM NaCl, 2.5 mM CaCl2, and 0.1% PEG 6000, pH 7.5, factor Xa […], S-2222 164 μM. The standard least-squares method was used for determining Km for certain concentrations of the protein and substrate. Before the reaction, the protein and the active agent in the solution were under thermostatic control for 10 min; then the substrate was added and the reaction was initiated. The reaction rate was measured with a Specord M80 instrument from a change in the light absorption at a wavelength of 405 nm. The IC50 values were determined from the experimentally obtained dependence of the initial rates on the concentration of the inhibitor (active agent). The Ki values were calculated from the concentrations of the protein, substrate, and inhibitors; the IC50 values, by the method described in (1) Jordan, S. P.; Waxman, L.; Smith, D. E.; Vlasik, G. P. Biochemistry 1990, 29, 11095 and (2) Morrison, J. F. Biochim Biophys. Acta 1969, 185, 269.

human blood plasma = experiment: Prothrombin time in human blood plasma in vitro (Diahem P kit); settings: 3 min incubation, average of 3 measurements
Description: For some compounds depicted in the above examples, there has been measured the concentration of these compounds in human blood plasma, at which the prothrombin time of plasma is twice as much—2PT. The measurements were carried out with the aid of a Diahem P kit (NPO Renam, www.renam.ru) by a method described in the instruction for users of the kit. The active compound was dissolved in a blood plasma provided in the kit and was incubated for 3 min. The measurements were carried out with a Sysmex CA 50 instrument. For each concentration, there were taken 3 measurements and the result was averaged.

factor Xa, sequence (P00742 235-488 limits assumed): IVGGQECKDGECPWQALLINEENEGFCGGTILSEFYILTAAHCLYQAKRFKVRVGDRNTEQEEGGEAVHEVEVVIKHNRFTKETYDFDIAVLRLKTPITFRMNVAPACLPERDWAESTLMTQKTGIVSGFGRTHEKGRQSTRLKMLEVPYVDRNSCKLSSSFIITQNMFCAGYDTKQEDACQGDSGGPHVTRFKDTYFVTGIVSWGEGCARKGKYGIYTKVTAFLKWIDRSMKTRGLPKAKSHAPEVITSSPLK
factor Xa, sequence (P00742 41-179 partner limits assumed): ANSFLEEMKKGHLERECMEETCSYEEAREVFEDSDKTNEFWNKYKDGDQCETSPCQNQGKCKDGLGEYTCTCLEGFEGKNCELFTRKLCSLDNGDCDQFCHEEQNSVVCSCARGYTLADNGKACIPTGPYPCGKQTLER

SMILES | Ki (factor Xa) [nM] | 2 × PT (concentration at which the prothrombin time of plasma is twice as much) (human blood plasma) [µM]
CC(=N)N(C)c1ccc(C(=O)Nc2ccccc2C(=O)Nc2ccc(Cl)cn2)cc1 [Example 1, N-(5-chloropyridine-2-yl)-2-[(4-ethaneimidoyl-methylaminophenylcarbonyl)amino]benzamide] | 2 | –
CC(=N)N(C)c1ccc(C(=O)Nc2ccc(C)cc2C(=O)Nc2ccc(Cl)cn2)cc1 [Example 2, N-(5-chloropyridine-2-yl)-2-[(4-ethaneimidoyl-methyl-aminophenylcarbonyl)amino]5-methylbenzamide] | 0.5 | –
CC(=N)N(C)c1ccc(C(=O)Nc2ccc(Cl)cc2C(=O)Nc2ccc(Cl)cn2)cc1 [Example 3, N-(5-chloropyridine-2-yl)-2-[(4-ethaneimidoyl-methyl-aminophenylcarbonyl)amino]-5-chlorobenzamide] | 0.3 | –
COc1ccc(NC(=O)c2ccc(N(C)C(C)=N)cc2)c(C(=O)Nc2ccc(Cl)cn2)c1 [Example 4, N-(5-chloropyridine-2-yl)-2-[(4-ethaneimidoyl-methyl-aminophenylcarbonyl)amino]5-methoxybenzamide] | 1 | –
CC(=N)N(C)c1cc(F)c(C(=O)Nc2ccc(Cl)cc2C(=O)Nc2ccc(Cl)cn2)c(OCCCN)c1 [Example 10, N-(5-chloropyridine-2-yl)-2-[2-(3-aminopropoxy)-6-fluoro-4(ethaneamidoylmethylamino)phenylcarbonylamino]-5-chlorobenzamide] | 0.4 | 0.15
CC(=N)N(C)c1ccc(C(=O)Nc2ccc(C)cc2C(=O)Nc2ccc(Cl)cn2)c(F)c1 [Example 11] | 0.8 | 0.09
CC(=N)N(C)c1ccc(C(=O)Nc2ccc(Cl)cc2C(=O)Nc2ccc(Cl)cn2)c(F)c1 [Example 12] | 1 | 0.09
COC(=N)N(C)c1ccc(C(=O)Nc2ccc(C)cc2C(=O)Nc2ccc(Cl)cn2)cc1 [Example 14, N-(5-chloropyridine-2-yl)-2-[(4-(imino(methoxy)methyl)(methyl)aminophenylcarbonyl)amino]5-methylbenzamide] | 2 | –
CNC(=N)N(C)c1ccc(C(=O)Nc2ccc(C)cc2C(=O)Nc2ccc(Cl)cn2)cc1 [Example 15] | 0.5 | 1.5
CNC(=N)N(C)c1ccc(C(=O)Nc2ccc(Cl)cc2C(=O)Nc2ccc(Cl)cn2)cc1 [Example 16] | 0.5 | 1.5
CNC(=O)N(C)c1ccc(C(=O)Nc2ccc(Cl)cc2C(=O)Nc2ccc(Cl)cn2)cc1 [Example 17, N-(5-chloropyridine-2-yl)-2-[(4-methyl(methylcarbamoyl)aminophenylcarbonyl)amino]-5-chlorobenzamide] | 0.15 | –
CNC(=O)N(C)c1ccc(C(=O)Nc2ccc(C)cc2C(=O)Nc2ccc(Cl)cn2)cc1 [Example 18] | 0.15 | 3.0
CNC(=O)N(C)c1ccc(C(=O)Nc2ccc(Cl)cc2C(=O)Nc2ccc(Cl)cn2)c(OCCCN)c1 [Example 20] | 0.2 | 1.0

The next lines start with results.

Ki (factor Xa) [nM] | SMILES | 2 × PT (concentration at which the prothrombin time of plasma is twice as much) (human blood plasma) [µM]
0.5 | CC(=N)N(C)c1ccc(C(=O)Nc2ccccc2C(=O)Nc2ccc(Cl)cn2)c(OCCCN)c1 [Example 5, N-(5-chloropyridine-2-yl)-2-[4-(ethaneimidoylmethylamino)-2-(3-aminopropoxy)phenylcarbonyl-amino]benzamide] | 0.2
0.5 | CC(=N)N(C)c1ccc(C(=O)Nc2ccc(C)cc2C(=O)Nc2ccc(Cl)cn2)c(OCCCN)c1 [Example 6] | 0.2
0.5 | CC(=N)N(C)c1ccc(C(=O)Nc2ccc(Cl)cc2C(=O)Nc2ccc(Cl)cn2)c(OCCCN)c1 [Example 7, N-(5-chloropyridine-2-yl)-2-[4-(ethaneimidoylmethylamino)-2-(3-aminopropoxy)phenylcarbonylamino]-5-chlorobenzamide] | –
0.5 | COc1ccc(NC(=O)c2ccc(N(C)C(C)=N)cc2OCCCN)c(C(=O)Nc2ccc(Cl)cn2)c1 [Example 8, N-(5-chloropyridine-2-yl)2-[4(ethaneimidoylmethylamino)-2-(3-aminopropoxy)phenylcarbonyl-amino]-5-methoxybenzamide] | 0.2
0.4 | CC(=N)N(C)c1cc(F)c(C(=O)Nc2ccc(C)cc2C(=O)Nc2ccc(Cl)cn2)c(OCCCN)c1 [Example 9, N-(5-chloropyridine-2-yl)-2-[4-(ethaneimidoylmethylamino)-2-(3-aminopropoxy)-6-fluorophenylcarbonylamino]-5-methylbenzamide] | 0.15
0.5 | CC(=N)N(C)c1ccc(C(=O)Nc2ccc(C)cc2C(=O)Nc2ccc(Cl)cn2)c(OCCCNC(C)=O)c1 [Example 13, N-(5-chloropyridine-2-yl)-2-[4-(ethaneimidoylmethylamino)-2-(3-(acetylamino)propoxy)phenylcarbonylamino]-5-methylbenzamide] | 1.5
0.2 | CNC(=O)N(C)c1ccc(C(=O)Nc2ccc(C)cc2C(=O)Nc2ccc(Cl)cn2)c(OCCCN)c1 [Example 19] | 1.0
